The values below come from patent US7713994B2 (Wyeth LLC, priority 2005, dated 2010).

Assay [1] addresses T1, cyclin D1/cdk 4 enzyme (Homo sapiens, UniProt P11802).
T1 construct: made in house; host or cells: Sf9 insect cells, recombinant baculovirus
The assay is described as follows: CDK4 ELISA kinase assay (phospho-Rb ser 795 detection). The assay is classed as biochemical. Particulars: In Vitro Enzyme Assay, cyclin D1/cdk 4, read-out: CDK4 IC50. Put shortly: (§1)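 Inhibition was derived from A450 relative to control wells lacking compound, following an anti-phospho-Rb Ser795 sandwich of HRP detection. The reactions combined coated GST-Rb fragment, 200 μM ATP and baculovirus-expressed cyclin/CDK enzymes, incubated for 1 h at 30° C.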
A general note: ELISA stands for enzyme-linked immunosorbent assay.

Assay [2] addresses T2, cyclin E/CDK2 enzyme (Homo sapiens, UniProt P24941).
T2 construct: made in house; host or cells: Sf9 insect cells, recombinant baculovirus
The assay is described as follows: CDK2 ELISA kinase assay (phospho-Rb ser 795 detection). The assay is classed as biochemical. The conditions noted are these: In Vitro Enzyme Assay, cyclin E/CDK2, read-out: CDK2 IC50. The gist of the method:
as §1

Assay [3] addresses T3, cyclin B/CDK1 enzyme (Homo sapiens, UniProt P06493).
T3 construct: purchased New England BioLabs; host or cells: Sf9 insect cells, recombinant baculovirus
Kind of assay: CDK1 ELISA kinase assay (phospho-Rb ser 795 detection). The assay is classed as biochemical. The conditions noted are these: In Vitro Enzyme Assay, cyclin B/CDK1, read-out: CDK1 IC50. The gist of the method: as §1

In assay [4] the test system is BT474. Kind of assay: Cytotoxicity assay (SRB), BT474. The assay is classed as cell-based. Particulars: Homo sapiens, BT-474, 144 h, BT474 cells, 6 days, SRB; read-out: In Vitro Cellular Activity IC50 BT474. The gist of the method:
(§2)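 Plate cells, let them attach overnight, add compound dilutions in RPMI 1640/5% FBS, and incubate 3 days (BT474 6 days). Then fix with TCA, stain with SRB, dissolve the dye in Tris and read at 540 nm.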

In assay [5] the test system is HCT-116. The assay is described as follows: Cytotoxicity assay (SRB), HCT-116. It counts as cell-based. Particulars: Homo sapiens, HCT-116, 72 h, HCT116 cells, 3 days, SRB; read-out: In Vitro Cellular Activity IC50 HCT116. The gist of the method:
as §2

Assay [6] concerns LoVo. Kind of assay: Cytotoxicity assay (SRB), LoVo. It counts as cell-based. Particulars: Homo sapiens, LoVo, 72 h, LoVo cells, 3 days, SRB; read-out: In Vitro Cellular Activity IC50 LOVO. Put shortly:
as §2

The test system of assay [7] is MCF-7. Kind of assay: Cytotoxicity assay (SRB), MCF-7. The conditions noted are these: Homo sapiens, MCF7, 72 h, MCF-7 cells, 3 days, SRB; read-out: In Vitro Cellular Activity IC50 MCF-7. The assay is classed as cell-based. The gist of the method: as §2

pIC50: −log10 of the molar value.

T3 sequence (P06493 whole entry): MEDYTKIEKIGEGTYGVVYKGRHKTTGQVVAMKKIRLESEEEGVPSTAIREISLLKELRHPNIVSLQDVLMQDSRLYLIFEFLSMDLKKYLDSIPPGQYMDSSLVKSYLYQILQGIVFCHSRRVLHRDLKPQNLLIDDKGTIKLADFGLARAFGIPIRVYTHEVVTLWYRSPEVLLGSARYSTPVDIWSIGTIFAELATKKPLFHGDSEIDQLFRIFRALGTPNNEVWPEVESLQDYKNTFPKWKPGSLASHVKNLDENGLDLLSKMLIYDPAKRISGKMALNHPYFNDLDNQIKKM
T3 sequence (P14635 whole entry partner): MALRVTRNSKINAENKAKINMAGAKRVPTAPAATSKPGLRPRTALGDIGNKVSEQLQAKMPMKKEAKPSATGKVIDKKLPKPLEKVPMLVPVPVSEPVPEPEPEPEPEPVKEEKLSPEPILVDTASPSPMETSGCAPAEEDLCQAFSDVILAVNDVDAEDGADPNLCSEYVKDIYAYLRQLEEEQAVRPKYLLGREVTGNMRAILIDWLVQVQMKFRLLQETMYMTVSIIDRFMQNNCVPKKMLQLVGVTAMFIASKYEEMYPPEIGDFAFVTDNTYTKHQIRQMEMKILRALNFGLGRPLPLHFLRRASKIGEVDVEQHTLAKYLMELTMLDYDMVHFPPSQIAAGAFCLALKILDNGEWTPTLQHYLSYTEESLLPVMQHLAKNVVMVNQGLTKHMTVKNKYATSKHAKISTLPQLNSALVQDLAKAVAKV
T1 sequence (P11802 whole entry, species assumed): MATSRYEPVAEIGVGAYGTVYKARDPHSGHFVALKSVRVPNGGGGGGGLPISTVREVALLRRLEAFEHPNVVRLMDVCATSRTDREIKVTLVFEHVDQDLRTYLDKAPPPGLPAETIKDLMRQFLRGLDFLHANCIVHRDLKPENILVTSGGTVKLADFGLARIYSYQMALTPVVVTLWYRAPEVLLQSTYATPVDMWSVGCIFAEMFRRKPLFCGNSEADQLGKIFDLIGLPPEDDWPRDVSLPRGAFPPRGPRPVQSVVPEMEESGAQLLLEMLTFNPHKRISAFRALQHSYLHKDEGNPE
T1 sequence (P24385 whole entry partner, species assumed): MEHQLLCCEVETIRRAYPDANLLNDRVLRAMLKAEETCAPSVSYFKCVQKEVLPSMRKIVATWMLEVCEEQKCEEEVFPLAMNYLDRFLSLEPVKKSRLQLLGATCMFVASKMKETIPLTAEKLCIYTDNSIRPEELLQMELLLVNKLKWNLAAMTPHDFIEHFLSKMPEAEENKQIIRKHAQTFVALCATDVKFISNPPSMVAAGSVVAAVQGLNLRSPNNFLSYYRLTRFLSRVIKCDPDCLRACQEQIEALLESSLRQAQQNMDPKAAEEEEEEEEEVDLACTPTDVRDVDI

The term pIC50 denotes −log10 of the IC50, conventionally taken in molar units. On to `O=C1NC(=O)c2ccc(-c3ccc[nH]3)cc2C1=CNCc1ccc(O)c(O)c1` [Example 647, 4-[(3,4-Dihydroxy-benzylamino)-methylene]-6-(1H-pyrrol-2-yl)-4H-isoquinoline-1,3-dione], for which the pIC50 in assay [1] was over 8.30; in assay [2], 5.59; in assay [3], 5.07; in assay [4], 4.74; in assay [5] it was 4.82; in assay [6] it was 5.02. The pIC50 in assay [7] is 4.71.
For `NS(=O)(=O)c1ccc(CNC=C2C(=O)NC(=O)c3ccc(C=Cc4cnccn4)cc32)cc1` [Example 655, 4-({[1,3-Dioxo-6-(2-pyrazin-2-yl-vinyl)-2,3-dihydro-1H-isoquinolin-4-ylidenemethyl]-amino}-methyl)-benzenesulfonamide], the pIC50 was 6.24 in assay [1]; 4.96 in assay [2]; 4.63 in assay [3]; 5.70 in assay [4]; 5.92 in assay [5]; 5.12 in assay [6]. The pIC50 in assay [7] is 5.11.
Take `Cc1ncsc1C=Cc1ccc2c(c1)C(=CNCc1ccc(S(N)(=O)=O)cc1)C(=O)NC2=O` [Example 659, 4-[({6-[2-(4-Methyl-thiazol-5-yl)-vinyl]-1,3-dioxo-2,3-dihydro-1H-isoquinolin-4-ylidenemethyl}-amino)-methyl]-benzenesulfonamide]: the pIC50 was 6.36 in assay [1]; 4.74 in assay [2]; under 4.30 in assay [3]; 4.64 in assay [4]; 4.59 in assay [5]; under 4.30 in assay [6]. The pIC50 in assay [7] was 4.39.
For the compound `O=C1NC(=O)c2ccc(C=CCc3ccccc3)cc2C1=CNCc1ccc(O)c(O)c1` [Example 660, 4-[(3,4-Dihydroxy-benzylamino)-methylene]-6-(3-phenyl-propenyl)-4H-isoquinoline-1,3-dione], the pIC50 in assay [1] was 5.61; in assay [2], 4.47; in assay [3], under 4.30; in assay [4], 4.98; in assay [5], 5.15; in assay [6] it was 5.12. Also, the pIC50 in assay [7] is 5.21.
Consider `O=C1NC(=O)c2ccc(C=Cc3ccccn3)cc2C1=CNCc1ccc(O)c(O)c1` [Example 662, 4-[(3,4-Dihydroxy-benzylamino)-methylene]-6-(2-pyridin-2-yl-vinyl)-4H-isoquinoline-1,3-dione], for which the pIC50 in assay [1] is 6.77; in assay [2] it was under 4.30; in assay [3] it was under 4.30; in assay [4] it was 4.45; in assay [5], under 4.30; in assay [6] it was under 4.30. Besides, the pIC50 in assay [7] was 4.51.
Turning to `O=C1NC(=O)c2ccc(C=CC3CCCCC3)cc2C1=CNCc1ccc(O)c(O)c1` [Example 664, 6-(2-Cyclohexyl-vinyl)-4-[(3,4-dihydroxy-benzylamino)-methylene]-4H-isoquinoline-1,3-dione], the pIC50 in assay [1] was 6.66; in assay [2] it was 4.50; in assay [3] it was under 4.30; in assay [4] it was 5.03; in assay [5], 5.17; in assay [6], 5.22. In assay [7], the pIC50 was 5.32.
On to `O=C1NC(=O)c2ccc(C=CCn3ccnc3)cc2C1=CNCc1ccc(O)c(O)c1` [Example 665, 4-[(3,4-Dihydroxy-benzylamino)-methylene]-6-(3-imidazol-1-yl-propenyl)-4H-isoquinoline-1,3-dione], for which the pIC50 in assay [1] was 6.80; in assay [2], 5.09; in assay [3] it was 4.37; in assay [4], 4.54; in assay [5], 4.33; in assay [6], under 4.30. For the same compound, the pIC50 in assay [7] was 4.89.
